Measured values reported in PubChem BioAssay (NCI).
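GI50: concentration for 50% inhibition of growth. TGI: concentration producing complete growth inhibition.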

Assays:
Experiment in all cases: NCI-60 cell line screen, 384-well format
[1] = test system: 786-0 renal
[2] = test system: A498 renal
[3] = test system: A549 NSCLC
[4] = test system: ACHN renal
[5] = test system: BT-549 breast
[6] = test system: CAKI-1 renal
[7] = test system: CCRF-CEM leukemia
[8] = test system: DU-145 prostate
[9] = test system: EKVX NSCLC
[10] = test system: HCT-116 colon
[11] = test system: HCT-15 colon
[12] = test system: HL-60(TB) leukemia
[13] = test system: HOP-62 NSCLC
[14] = test system: HOP-92 NSCLC
[15] = test system: HS 578T breast
[16] = test system: HT29 colon
[17] = test system: IGROV1 ovarian
[18] = test system: K-562 leukemia
[19] = test system: KM12 colon
[20] = test system: LOX IMVI melanoma
[21] = test system: M14 melanoma
[22] = test system: MALME-3M melanoma
[23] = test system: MCF7 breast
[24] = test system: MDA-MB-231 breast
[25] = test system: MDA-MB-435 melanoma
[26] = test system: MDA-MB-468 breast
[27] = test system: MOLT-4 leukemia
[28] = test system: NCI-H226 lung
[29] = test system: NCI-H23 lung
[30] = test system: NCI-H322M lung
[31] = test system: NCI-H522 lung
[32] = test system: NCI/ADR-RES ovarian
[33] = test system: OVCAR-3 ovarian
[34] = test system: OVCAR-4 ovarian
[35] = test system: OVCAR-5 ovarian
[36] = test system: OVCAR-8 ovarian
[37] = test system: PC-3 prostate
[38] = test system: RPMI-8226 leukemia
[39] = test system: RXF 393 renal
[40] = test system: SF-268 CNS
[41] = test system: SF-295 CNS
[42] = test system: SF-539 CNS
[43] = test system: SK-MEL-2 melanoma
[44] = test system: SK-MEL-28 melanoma
[45] = test system: SK-OV-3 ovarian
[46] = test system: SN12C renal
[47] = test system: SNB-19 CNS
[48] = test system: SNB-75 CNS
[49] = test system: SW-620 colon
[50] = test system: T-47D breast
[51] = test system: TK-10 renal
[52] = test system: U251 glioblastoma
[53] = test system: UACC-257 melanoma
[54] = test system: UACC-62 melanoma
[55] = test system: UO-31 renal

C1CN1c1nc(N2CC2)nc(N2CC2)n1
GI50 [1]: 2.59 µM
TGI [1]: 11.9 µM
GI50 [2]: 3.36 µM
TGI [2]: 18.6 µM
GI50 [3]: 3.42 µM
TGI [3]: 19.5 µM
GI50 [4]: 1.55 µM
TGI [4]: 4.03 µM
GI50 [5]: 2.16 µM
TGI [5]: 11.5 µM
GI50 [6]: 1.46 µM
TGI [6]: 14.2 µM
GI50 [7]: 0.449 µM
TGI [7]: 1.35 µM
GI50 [8]: 1.04 µM
TGI [8]: 5.94 µM
GI50 [9]: 15.5 µM
TGI [9]: 31 µM
GI50 [10]: 1.61 µM
TGI [10]: 16.6 µM
GI50 [11]: 2.34 µM
TGI [11]: 14.1 µM
GI50 [12]: 0.144 µM
TGI [12]: 0.3 µM
GI50 [13]: 0.589 µM
TGI [13]: 2.75 µM
GI50 [14]: 6.61 µM
TGI [14]: 58.6 µM
GI50 [15]: 11.6 µM
TGI [15]: 24 µM
GI50 [16]: 2.75 µM
TGI [16]: 15.3 µM
GI50 [17]: 10.8 µM
TGI [17]: 22.9 µM
GI50 [18]: 3.96 µM
TGI [18]: 17.4 µM
GI50 [19]: 2.47 µM
TGI [19]: 54.9 µM
GI50 [20]: 2.25 µM
TGI [20]: 14.8 µM
GI50 [21]: 1.74 µM
TGI [21]: 10.5 µM
GI50 [22]: 4.87 µM
TGI [22]: 18.6 µM
GI50 [23]: 1.51 µM
TGI [23]: 18 µM
GI50 [24]: 11.7 µM
TGI [24]: 25.2 µM
GI50 [25]: 10.8 µM
TGI [25]: 23.1 µM
GI50 [26]: 0.139 µM
TGI [26]: 0.586 µM
GI50 [27]: 0.0877 µM
TGI [27]: 0.21 µM
GI50 [28]: 4.42 µM
TGI [28]: 19.9 µM
GI50 [29]: 1.22 µM
TGI [29]: 4.3 µM
GI50 [30]: 13.3 µM
TGI [30]: 27.9 µM
GI50 [31]: 1.36 µM
TGI [31]: 2.87 µM
GI50 [32]: 3.02 µM
TGI [32]: 15.1 µM
GI50 [33]: 3.13 µM
TGI [33]: 14.5 µM
GI50 [34]: 14.7 µM
TGI [34]: 29 µM
GI50 [35]: 5.96 µM
TGI [35]: 22 µM
GI50 [36]: 1.39 µM
TGI [36]: 15.9 µM
GI50 [37]: 10.7 µM
TGI [37]: 23.4 µM
GI50 [38]: 0.736 µM
TGI [38]: 3.11 µM
GI50 [39]: 3.11 µM
TGI [39]: 13.1 µM
GI50 [40]: 0.68 µM
TGI [40]: 10.2 µM
GI50 [41]: 1.08 µM
TGI [41]: 2.84 µM
GI50 [42]: 1.46 µM
TGI [42]: 4.3 µM
GI50 [43]: 8.35 µM
TGI [43]: 18.8 µM
GI50 [44]: 10.3 µM
TGI [44]: 22.1 µM
GI50 [45]: 2.76 µM
TGI [45]: 12.2 µM
GI50 [46]: 1.21 µM
TGI [46]: 10.3 µM
GI50 [47]: 3.73 µM
TGI [47]: 18.1 µM
GI50 [48]: 1.67 µM
TGI [48]: 10.3 µM
GI50 [49]: 2.84 µM
TGI [49]: 20 µM
GI50 [50]: 5.49 µM
TGI [50]: 22.7 µM
GI50 [51]: 14.3 µM
TGI [51]: 35 µM
GI50 [52]: 1.42 µM
TGI [52]: 13.3 µM
GI50 [53]: 12.5 µM
TGI [53]: 25.2 µM
GI50 [54]: 1.34 µM
TGI [54]: 11.6 µM
GI50 [55]: 5.17 µM
TGI [55]: 17.9 µM
